Assay results reported in ChEMBL document CHEMBL1201862, “PubChem BioAssay data set” (2004).
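Interpolation was linear, between the two tested concentrations surrounding the appropriate level; five concentrations were tested over 48 hours in 96-well plates. GI50: concentration for 50% inhibition of growth.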 The source made the active and inactive calls. Cut-off read from the data, not from the text of the source: active = GI50 up to about 1.1 µM and inactive = higher.

What was measured:
Experiment in all cases: NCI tumour cell line growth inhibition, 48 h
A549 = system: A549
CAKI-1 = system: CAKI-1
CCRF-CEM = system: CCRF-CEM
Hs-578T = system: Hs-578T
K562 = system: K562
KM12 = system: KM12
M14 = system: M14
MOLT-4 = system: MOLT-4
OVCAR-5 = system: OVCAR-5
OVCAR-8 = system: OVCAR-8
PC-3 = system: PC-3
RXF 393 = system: RXF 393
SF-268 = system: SF-268
SK-MEL-2 = system: SK-MEL-2
SK-MEL-5 = system: SK-MEL-5
SK-OV-3 = system: SK-OV-3
SNB-75 = system: SNB-75
T47D = system: T47D
U-251 = system: U-251
UACC-62 = system: UACC-62

SMILES	GI50 (A549)	GI50 (CAKI-1)	GI50 (CCRF-CEM)	GI50 (Hs-578T)	GI50 (K562)	GI50 (KM12)	GI50 (M14)	GI50 (MOLT-4)	GI50 (OVCAR-5)	GI50 (OVCAR-8)	GI50 (PC-3)	GI50 (RXF 393)	GI50 (SF-268)	GI50 (SK-MEL-2)	GI50 (SK-MEL-5)	GI50 (SK-OV-3)	GI50 (SNB-75)	GI50 (T47D)	GI50 (U-251)	GI50 (UACC-62)
OCc1ccn2c1[C@@H](O)CC2	> 100 µM (inactive)	> 100 µM (inactive)	> 100 µM (inactive)	> 100 µM (inactive)	> 100 µM (inactive)	> 100 µM (inactive)	> 100 µM (inactive)	> 100 µM (inactive)	> 100 µM (inactive)	> 100 µM (inactive)	> 100 µM (inactive)	> 100 µM (inactive)	> 100 µM (inactive)	> 100 µM (inactive)	> 100 µM (inactive)	> 100 µM (inactive)	> 100 µM (inactive)	> 100 µM (inactive)	> 100 µM (inactive)	> 100 µM (inactive)
O=C(c1ccccc1)c1ccc(-n2c3ccccc3c3ccc4c(c32)C(=O)C=CC4=O)cc1	18.5 µM (inactive)	2.07 µM (inactive)	1.11 µM (active)	23.4 µM (inactive)	3.4 µM (inactive)	17.5 µM (inactive)	9.2 µM (inactive)	1.75 µM (inactive)	18.7 µM (inactive)	7.24 µM (inactive)	11.7 µM (inactive)	5.24 µM (inactive)	10.7 µM (inactive)	19.3 µM (inactive)	18.7 µM (inactive)	20.9 µM (inactive)	22.7 µM (inactive)	3.1 µM (inactive)	14.7 µM (inactive)	13.1 µM (inactive)
Clc1ccc(Cc2nc3ccccc3nc2-c2cccc(Br)c2)cc1	17 µM (inactive)	2.22 µM (inactive)	1.07 µM (active)	1.69 µM (inactive)	2.8 µM (inactive)	8.59 µM (inactive)	2.32 µM (inactive)	2.22 µM (inactive)	4.19 µM (inactive)	2.92 µM (inactive)	1.92 µM (inactive)	2.47 µM (inactive)	19.8 µM (inactive)	4.67 µM (inactive)	13.9 µM (inactive)	16.8 µM (inactive)	20.4 µM (inactive)	1.87 µM (inactive)	7.41 µM (inactive)	1.91 µM (inactive)
COc1cc2c(c(O)c1C)C(=O)C(Cl)=CC2=O	22.1 µM (inactive)	5.45 µM (inactive)	0.918 µM (active)	30.5 µM (inactive)	2.26 µM (inactive)	19.5 µM (inactive)	6.47 µM (inactive)	1.88 µM (inactive)	28.5 µM (inactive)	18.8 µM (inactive)	15.2 µM (inactive)	6.31 µM (inactive)	17.8 µM (inactive)	15.6 µM (inactive)	8.69 µM (inactive)	> 53.1 µM (inactive)	16.4 µM (inactive)	2.17 µM (inactive)	21.4 µM (inactive)	7.23 µM (inactive)
CCC1(O)C=CC(=O)C=C1	31.6 µM (inactive)	31.4 µM (inactive)	60.7 µM (inactive)	66.5 µM (inactive)	39.5 µM (inactive)	15 µM (inactive)	17.5 µM (inactive)	47.3 µM (inactive)	33.1 µM (inactive)	26.7 µM (inactive)	20.9 µM (inactive)	18.4 µM (inactive)	20.7 µM (inactive)	31.1 µM (inactive)	31.8 µM (inactive)	38.5 µM (inactive)	33.3 µM (inactive)	22.7 µM (inactive)	15.3 µM (inactive)	17.2 µM (inactive)
Cc1ccc2nc3sc(=O)sc3nc2c1 [CHINOMETHIONAT]	16.1 µM (inactive)	16.4 µM (inactive)	31.5 µM (inactive)	25 µM (inactive)	26.2 µM (inactive)	15.6 µM (inactive)	16.9 µM (inactive)	15.2 µM (inactive)	16.7 µM (inactive)	15.3 µM (inactive)	14.3 µM (inactive)	18.1 µM (inactive)	16.4 µM (inactive)	14.4 µM (inactive)	15.6 µM (inactive)	19.6 µM (inactive)	19.6 µM (inactive)	83.6 µM (inactive)	17.1 µM (inactive)	17.9 µM (inactive)
